In US9611263B2, “Compounds that modulate intracellular calcium” (CALCIMEDICA, INC., priority 2013, dated 2017):
Where two headings read alike, the source gives them in different places.

Legend:
[1] = biological target: STIM1 and Orai1 (Homo sapiens, UniProt Q96D31); conditions: HEK293 cells co-expressing STIM1 and Orai1; cited from earlier work
[2] = tested on: Jurkat cells; conditions: cited from earlier work
[3] = tested on: Jurkat cells; conditions: cited from earlier work; remark: listed apart in the source
[4] = biological target: T1, Orai1/STIM1 (Homo sapiens, UniProt Q96D31); assay: Fluorescence-based assay of store-operated calcium entry in Orai1/STIM1 stable cells; assay type: cell-based; conditions: for IC50: HEK-293 cells stably expressing human STIM1 and Orai1, 50% inhibition of Peak-Basal fluorescence signal, read-out: Orai1/STIM1 (IC50, μmol)
T1 construct: expressed in transfected cells
T1 sequence (Q96D31 whole entry): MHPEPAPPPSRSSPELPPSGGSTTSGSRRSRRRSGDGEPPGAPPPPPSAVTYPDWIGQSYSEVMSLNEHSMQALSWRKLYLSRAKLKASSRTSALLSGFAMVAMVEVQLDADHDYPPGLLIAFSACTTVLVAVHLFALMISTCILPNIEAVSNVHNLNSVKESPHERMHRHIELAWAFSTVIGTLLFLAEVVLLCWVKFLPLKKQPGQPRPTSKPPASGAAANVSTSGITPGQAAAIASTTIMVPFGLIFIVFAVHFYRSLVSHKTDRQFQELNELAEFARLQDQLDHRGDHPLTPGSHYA
Procedure: A. Fluorescence-Based Assay of Store-Operated Calcium Entry in Orai1/STIM1 Stable Cells.
Cells stably expressing recombinant human STIM1 and Orai1 are generated by transfecting a human Orai1 expression plasmid (pcDNA3.1-Orai1-cmyc) into HEK-293 cells stably overexpressing human STIM1 (Roos et al. 2005 JCB 169(3): 435-445). Colonies of cells stably expressing both STIM1 and Orai1 proteins are selected and then subcloned by limiting dilution. Cells were cultured at 37° C./6% CO2 in complete medium with 10% FBS and appropriate selection markers.
The day prior to performing the assay Orai1/STIM1 stable cells are plated in 50 μL of complete medium at 90-95% confluence in a 384 well plate. Cells are grown at 37° C./6% CO2 overnight. On the day of the assay, 1.5 μM fluo-4-AM (Invitrogen) in complete medium is added to the cells, which are then incubated for 1 hour at RT. Cells are washed once in Ca^2+-free HBSS (Hank's buffered saline solution) and 35 μl of Ca^2+-free HBSS is added to each well. Test compounds are added to wells in a 10 μL Ca^2+-free HBSS solution, prepared at 4.5× the desired final concentration, and incubated for 30 minutes at RT. The initial baseline fluorescence signal is then measured with a FLIPR^384 (Molecular Devices) plate reader. Calcium entry is initiated by adding 5 μl of 10× CaCl2 (10 mM) in HBSS, and changes in cellular fluorescence are measured with the FLIPR^384 plate reader. In each well, the magnitude of the fluorescence signal as a result of calcium entry into the cell is determined by calculating the difference between the peak fluorescence signal measured after calcium addition and the initial baseline fluorescence signal (designated Peak-Basal). IC50 values are typically calculated as the concentration that inhibited 50% of the Peak-Basal signal.

[5] = tested on: RBL-2H3 cells; assay: Fluorescence-based assay of store-operated calcium entry in RBL-2H3 cells; assay type: cell-based, rat; conditions: for IC50: thapsigargin, 50% inhibition of Upslope, read-out: RBL-2H3 (IC50, μmol); for RBL-2H3 efficacy: given in place of a class
Procedure: B. Fluorescence-Based Assay of Store-Operated Calcium Entry in RBL-2H3 Cells.
RBL-2H3 cells are obtained from ATCC and maintained in complete medium with 10% FBS at 37° C./6% CO2.
The day prior to performing the assay, RBL-2H3 cells are plated in 50 μL of complete medium in a 384 well plate. Cells are grown at 37° C./6% CO2 overnight and grow to 50-60% confluence by the next day. On the assay day, 1.5 μM Fluo-4-AM dye (Invitrogen) in complete medium is added and incubated for 1 hour at RT. Cells are washed twice in Ca^2+-free HBSS buffer and 35 μL Ca^2+-free HBSS buffer is added to each well. 10 μL of a test compound prepared in a Ca^2+-free HBSS solution at 4.5× of the desired concentration is added to a well and incubated for 5 minutes at RT. 10 μL of thapsigargin prepared in a Ca^2+-free HBSS solution at 5.5× of the desired concentration (5.5 uM) is added to each well and incubated for an additional 25 minutes. The initial baseline fluorescence signal is measured with a FLIPR^384 (Molecular Devices) plate reader. 5 μL of 12× calcium in HBSS (12 mM) is added and changes in cellular fluorescence are measured with the FLIPR^384 plate reader. In each well, the change in the fluorescent signal as a function of time due to calcium entry into the cell is determined by calculating the difference between the fluorescent signal measured 7 seconds after calcium addition and the initial baseline fluorescence signal at time zero (t=0). This parameter is designated Upslope. The IC50 value is calculated as the concentration at which 50% of the Upslope is inhibited.

Sequence of STIM1 and Orai1 (Q96D31 whole entry, species assumed): as the sequence (Q96D31 whole entry) above

Row | Compound | IC50 [4] | IC50 ([5]; Rattus norvegicus, RBL-2H3) | other results
1 | NCCOB(c1ccccc1)c1ccccc1 [2-aminoethoxydiphenylborate] | – | – | store-operated Ca2+ entry [1]: completely blocked
2 | Cc1nnsc1C(=O)Nc1ccc(-n2nc(C(F)(F)F)cc2C(F)(F)F)cc1 [BTP-2] | – | – | SOCE [2]: inhibits; proliferation [3]: inhibits
3 | Cc1nn(-c2ccccc2F)cc1-c1ccc(NC(=O)c2ccccc2F)nc1 [Example 58, 2-fluoro-N-(5-(1-(2-fluorophenyl)-3-methyl-1H-pyrazol-4-yl)pyridin-2-yl)benzamide] | 600 to 1200 nM | > 1200 nM | –
4 | Cc1cccc(F)c1C(=O)Nc1ccc(-c2cn(-c3ccccc3F)nc2C)cn1 [Example 59, 2-fluoro-N-(5-(1-(2-fluorophenyl)-3-methyl-1H-pyrazol-4-yl)pyridin-2-yl)-6-methylbenzamide] | < 600 nM | < 600 nM | –
5 | Cc1ccc(F)c(C(=O)Nc2ccc(-c3cn(-c4ccccc4F)nc3C)cn2)c1F [Example 60, 2,6-difluoro-N-(5-(1-(2-fluorophenyl)-3-methyl-1H-pyrazol-4-yl)pyridin-2-yl)-3-methylbenzamide] | < 600 nM | < 600 nM | –
6 | Cc1nn(-c2ccccc2F)cc1-c1ccc(NC(=O)c2ccccc2OC(F)F)nc1 [Example 61, 2-(difluoromethoxy)-N-(5-(1-(2-fluorophenyl)-3-methyl-1H-pyrazol-4-yl)pyridin-2-yl)benzamide] | > 1200 nM | > 1200 nM | –
7 | N#Cc1nn(-c2cc(F)ccc2F)cc1-c1ccc(NC(=O)c2c(F)cccc2F)nc1 [Example 62, N-(5-(3-cyano-1-(2,5-difluorophenyl)-1H-pyrazol-4-yl)pyridin-2-yl)-2,6-difluorobenzamide] | 600 to 1200 nM | < 600 nM | –
8 | Cc1cnc(-n2cc(-c3ccc(NC(=O)c4c(F)cccc4F)nc3)c(C)n2)s1 [Example 63, 2,6-difluoro-N-(5-(3-methyl-1-(5-methylthiazol-2-yl)-1H-pyrazol-4-yl)pyridin-2-yl)benzamide] | – | – | Orai1/STIM1 efficacy ([4]; given in place of a class): <50%; RBL-2H3 efficacy [5]: <50%
9 | N-(4-(3-ethyl-1-(thiazol-2-yl)-1H-pyrazol-4-yl)phenyl)-2,3,6-trifluorobenzamide [Example 9] | 600 to 1200 nM | – | IC50 [5]: < 600 nM
10 | N-(5-(3-ethyl-1-(thiazol-2-yl)-1H-pyrazol-4-yl)pyrazin-2-yl)-2,3,6-trifluorobenzamide [Example 39] | 600 to 1200 nM | – | IC50 [5]: < 600 nM
11 | N-(5-(3-ethyl-1-(thiazol-2-yl)-1H-pyrazol-4-yl)pyrazin-2-yl)-2,4,6-trifluorobenzamide [Example 40] | < 600 nM | – | IC50 [5]: < 600 nM

Continued, in another order:

Row | IC50 [4] | IC50 ([5]; Rattus norvegicus, RBL-2H3) | Compound | other results
12 | < 600 nM | < 600 nM | Cc1cnc(-n2cc(-c3ccc(NC(=O)c4c(F)ccc(F)c4F)nc3)c(C)n2)s1 [Example 64, 2,3,6-trifluoro-N-(5-(3-methyl-1-(5-methylthiazol-2-yl)-1H-pyrazol-4-yl)pyridin-2-yl)benzamide] | –
13 | < 600 nM | – | Cc1cnc(-n2cc(-c3ccc(NC(=O)c4c(F)cc(F)cc4F)nc3)c(C)n2)s1 [Example 65, 2,4,6-trifluoro-N-(5-(3-methyl-1-(5-methylthiazol-2-yl)-1H-pyrazol-4-yl)pyridin-2-yl)benzamide] | RBL-2H3 efficacy [5]: <50%
14 | > 1200 nM | < 600 nM | Cc1cn(-c2nccs2)nc1-c1ccc(NC(=O)c2c(F)cccc2F)cc1F [Example 66, 2,6-difluoro-N-(3-fluoro-4-(4-methyl-1-(thiazol-2-yl)-1H-pyrazol-3-yl)phenyl)benzamide] | –
15 | 600 to 1200 nM | < 600 nM | Cc1nn(-c2nccs2)cc1-c1cnc(NC(=O)c2c(F)ccc(F)c2F)s1 [Example 67, 2,3,6-trifluoro-N-(5-(3-methyl-1-(thiazol-2-yl)-1H-pyrazol-4-yl)thiazol-2-yl)benzamide] | –
16 | 600 to 1200 nM | < 600 nM | CCc1nn(-c2nccs2)cc1-c1nnc(NC(=O)c2c(F)ccc(F)c2F)s1 [Example 68, N-(5-(3-ethyl-1-(thiazol-2-yl)-1H-pyrazol-4-yl)-1,3,4-thiadiazol-2-yl)-2,3,6-trifluorobenzamide] | –
17 | < 600 nM | < 600 nM | Cc1nn(-c2nccs2)cc1-c1ccc(NC(=O)c2c(F)cccc2F)s1 [Example 69, 2,6-difluoro-N-(5-(3-methyl-1-(thiazol-2-yl)-1H-pyrazol-4-yl)thiophen-2-yl)benzamide] | –
18 | < 600 nM | < 600 nM | Cc1nn(-c2nccs2)cc1-c1ccc(NC(=O)c2ccccc2F)s1 [Example 70, 2-fluoro-N-(5-(3-methyl-1-(thiazol-2-yl)-1H-pyrazol-4-yl)thiophen-2-yl)benzamide] | –
19 | 600 to 1200 nM | < 600 nM | Cc1cccc(F)c1C(=O)Nc1ccc(-c2cn(-c3nccs3)nc2C)s1 [Example 71, 2-fluoro-6-methyl-N-(5-(3-methyl-1-(thiazol-2-yl)-1H-pyrazol-4-yl)thiophen-2-yl)benzamide] | –
20 | 600 to 1200 nM | > 1200 nM | Cc1nn(-c2nccs2)cc1-c1ccc(NC(=O)c2ccccc2OC(F)F)s1 [Example 72, 2-(difluoromethoxy)-N-(5-(3-methyl-1-(thiazol-2-yl)-1H-pyrazol-4-yl)thiophen-2-yl)benzamide] | –
21 | 600 to 1200 nM | < 600 nM | CCc1nn(-c2nccs2)cc1-c1ccc(NC(=O)c2c(F)cccc2F)s1 [Example 73, N-(5-(3-ethyl-1-(thiazol-2-yl)-1H-pyrazol-4-yl)thiophen-2-yl)-2,6-difluorobenzamide] | –
22 | < 600 nM | < 600 nM | CCc1nn(-c2nccs2)cc1-c1ccc(NC(=O)c2ccccc2F)s1 [Example 74, N-(5-(3-ethyl-1-(thiazol-2-yl)-1H-pyrazol-4-yl)thiophen-2-yl)-2-fluorobenzamide] | –
23 | < 600 nM | < 600 nM | Cc1nn(-c2nccs2)cc1-c1ccc(NCc2c(F)cccc2F)cc1F [Example 75, N-(2,6-difluorobenzyl)-3-fluoro-4-(3-methyl-1-(thiazol-2-yl)-1H-pyrazol-4-yl)aniline] | –
